According to patent US12110287B2, “Heterocyclic derivatives as Nav1.7 and Nav1.8 blockers” (RaQualia Pharma Inc., priority 2018, dated 2024):

Biological target: Nav1.7 (Homo sapiens, UniProt Q15858)
Test: Electrophysiology assay (whole cell patch clamp), affinity to inactivated state
Assay type: cell-based
Set-up: expressed in transfected cells
Details: affinity to inactivated state (Kinact), read-out: activity (Ki) against Nav1.7
Experimental: Whole cell patch clamp recording is used to assess the efficacy or selectivity of Na (Sodium) channel blocker on human voltage gated sodium channels. Na channel expressing cells are dissociated by 0.05% Trypsin-EDTA or Accutase, and then seeded on cover glass for 2-24 hours.
Manual patch clamp recordings are conducted at rt using the voltage-clamp amplifier (Axon Instruments or HEKA electronik). Electrodes are pulled with P-97 electrode puller (Sutter Instrument). The electrode resistances are 1-3 MOhm when intercellular solution is filled. Currents are lowpass filtered between 2-5 kHz and digitally sampled at 10 kHz. […]
After whole-cell configuration is achieved, cell is monitored at least 10 minutes to allow cell dialysis with pipette solution. […]
Peak currents evoked by Test 1 and Test 2 pulses are sampled with Clampex (Axon Instruments) or Pulse+Pulse Fit (HEKA). Averaged peak currents under vehicle or test compounds are calculated from 3 data points at end of each condition.
Inhibitory effects (% inhibition) on peak currents at Test 1 or Test 2 pulse are plotted against test concentration and IC50 values at Test 1 (Closed IC50) or Test 2 (Inactivated IC50) are calculated with Hill equation, respectively. […]
After whole-cell configuration is achieved, the cell is monitored at least 10-15 minutes to allow cell dialysis with pipette solution. […]

Sequence of Nav1.7 (Q15858 whole entry): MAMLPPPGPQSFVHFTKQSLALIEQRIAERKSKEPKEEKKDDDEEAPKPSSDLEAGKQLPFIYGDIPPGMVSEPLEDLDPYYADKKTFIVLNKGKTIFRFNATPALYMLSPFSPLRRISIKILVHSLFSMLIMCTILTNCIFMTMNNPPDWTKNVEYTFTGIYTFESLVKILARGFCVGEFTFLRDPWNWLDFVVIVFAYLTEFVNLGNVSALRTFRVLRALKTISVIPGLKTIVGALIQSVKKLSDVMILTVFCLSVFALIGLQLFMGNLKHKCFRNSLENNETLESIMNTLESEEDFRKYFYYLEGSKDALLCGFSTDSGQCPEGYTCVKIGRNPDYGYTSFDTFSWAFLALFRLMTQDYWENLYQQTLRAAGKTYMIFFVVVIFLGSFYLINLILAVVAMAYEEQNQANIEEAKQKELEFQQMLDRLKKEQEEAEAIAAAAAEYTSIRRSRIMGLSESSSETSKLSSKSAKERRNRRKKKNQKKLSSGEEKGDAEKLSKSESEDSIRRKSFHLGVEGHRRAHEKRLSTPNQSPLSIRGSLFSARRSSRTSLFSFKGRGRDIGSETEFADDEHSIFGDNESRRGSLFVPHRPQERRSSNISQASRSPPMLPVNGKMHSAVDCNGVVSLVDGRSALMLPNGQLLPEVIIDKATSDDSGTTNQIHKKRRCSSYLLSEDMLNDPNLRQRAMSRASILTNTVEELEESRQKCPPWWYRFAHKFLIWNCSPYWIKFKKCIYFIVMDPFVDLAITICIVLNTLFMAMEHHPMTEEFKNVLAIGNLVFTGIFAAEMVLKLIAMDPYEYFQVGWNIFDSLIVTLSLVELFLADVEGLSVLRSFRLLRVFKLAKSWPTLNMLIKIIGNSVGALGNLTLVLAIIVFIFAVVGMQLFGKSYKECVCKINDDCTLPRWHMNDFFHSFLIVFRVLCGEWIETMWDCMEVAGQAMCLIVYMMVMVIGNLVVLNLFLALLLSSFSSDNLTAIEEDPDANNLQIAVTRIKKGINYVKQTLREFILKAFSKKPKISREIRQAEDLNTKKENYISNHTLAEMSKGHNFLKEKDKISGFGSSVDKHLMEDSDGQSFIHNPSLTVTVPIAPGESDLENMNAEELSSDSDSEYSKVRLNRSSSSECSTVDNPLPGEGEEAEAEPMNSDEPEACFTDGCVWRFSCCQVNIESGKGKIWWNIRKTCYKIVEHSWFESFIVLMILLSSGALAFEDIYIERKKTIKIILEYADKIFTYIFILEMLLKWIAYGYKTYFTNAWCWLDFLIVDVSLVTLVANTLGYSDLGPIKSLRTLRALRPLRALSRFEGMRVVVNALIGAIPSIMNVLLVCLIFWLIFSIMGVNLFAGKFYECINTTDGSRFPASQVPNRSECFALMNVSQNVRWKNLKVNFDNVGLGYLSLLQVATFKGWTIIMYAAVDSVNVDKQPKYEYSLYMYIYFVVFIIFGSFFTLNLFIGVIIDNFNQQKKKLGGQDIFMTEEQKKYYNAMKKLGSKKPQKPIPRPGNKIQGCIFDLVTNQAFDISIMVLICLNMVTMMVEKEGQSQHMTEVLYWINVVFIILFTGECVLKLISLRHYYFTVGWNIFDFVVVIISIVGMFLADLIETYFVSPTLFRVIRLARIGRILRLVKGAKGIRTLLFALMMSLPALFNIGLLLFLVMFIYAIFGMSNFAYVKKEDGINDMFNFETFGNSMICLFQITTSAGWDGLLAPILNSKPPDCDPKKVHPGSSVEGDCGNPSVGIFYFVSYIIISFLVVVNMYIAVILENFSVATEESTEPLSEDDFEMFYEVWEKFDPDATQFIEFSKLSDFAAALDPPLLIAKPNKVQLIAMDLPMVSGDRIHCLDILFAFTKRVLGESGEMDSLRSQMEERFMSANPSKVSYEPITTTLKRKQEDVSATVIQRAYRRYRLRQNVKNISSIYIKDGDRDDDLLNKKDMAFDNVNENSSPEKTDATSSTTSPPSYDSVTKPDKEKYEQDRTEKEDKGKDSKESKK

Ki: < 200 nM
Structure (SMILES): O=C(N[C@@H]1CCCN(c2ncc(C(F)(F)F)cc2Cl)C1)c1ccnc(NC(=O)C2CC2)c1 [Example 7]
